{
  "source": "patent US12630501B2",
  "about": "“Anti-fibrotic compounds and use thereof” (HADASIT MEDICAL RESEARCH SERVICES AND DEVELOPMENT LTD., priority 2019, dated 2026)",
  "format_in_all_cases": "cell-based, human",
  "key": {"Ku70": {"tested_on": "Ku70", "test": "Ku70 immunoprecipitation with pan-acetyl / Ku70 immunoblot in IPF-lung myofibroblasts", "experimental": "(§1) Human lung myofibroblasts Differentiated fibroblasts from IPF-lungs and controls from patient lung biopsies performed for tumor diagnosis were obtained under a protocol detailed in Wallach-Dayan et al., J. Autoimmun. 59: 67-76, 2015. LL 97A (AlMy) (ATCC® CCL-191™)-IPF-lung, and LL 24 (ATCC® CCL-151™)-normal lung fibroblast cell lines were used.\nImmunoprecipitation and immunoblotting Standard protocols were performed as described in Golan-Gerstl et al., Am. J. Respir. Cell Mol. Biol. 47: 271-279, 2012.\n(§2) FLIP downregulation from an OD of 1.85 to 0.49 (about 3.5-fold) was detected in WB (FIG. 4F), and a […] from a mean fluorescence intensity (MFI)=10^3 to only 10^1 was detected with flow cytometry (FIG. 4G). Thus, SIRT1-mediated Ku70-deacetylation stabilizes IPF-lung myofibroblast FLIP via Ku70/FLIP complex. This effect of CMH on Ku70 further disrupts Ku70/FLIP complex and destabilizes FLIP in IPF-lung myofibroblasts.\n(§3) IPF cell line ATCC-191 (0.5×10^6), were exposed in culture (10% DMEM) to a compound of Formula 6 (1 or 3 μM) vs. 4% DMSO (vehicle) for 16 h. Ku70 immunoprecipitation with subsequent pan-acetyl (FIG. 8A) and immunoblots of Ku70 with anti-Ku70 mAb (FIG. 8B) or FLIP with anti-FLIP mAb (FIG. 8C) were measured. […] IPF-lung myofibroblasts decreased FLIP expression from an OD of 1.00 to 0.51 (about twofold, FIG. 8C)."}, "IPF cell line ATCC-191": {"tested_on": "IPF cell line ATCC-191", "test": "Caspase-3 cleaved vs. uncleaved immunoblot (direct cytotoxicity)", "settings": "72 h", "experimental": "IPF cell line ATCC-191 (0.5×10^6), were exposed in culture (10% DMEM) to a compound of Formula 6 (0.1-30 μM) vs. 4% DMSO (vehicle) for 72 h. Cells were lysed and immunoblots of caspase-3 cleaved vs. uncleaved were performed. […] Lower concentrations of a compound of Formula 6 treated cells even decreased their ratio indicating no toxicity of the analogue at these concentrations."}, "FLIP": {"tested_on": "FLIP", "test": "FLIP protein by Western blot and flow cytometry in IPF-lung myofibroblasts", "settings": "16 h", "experimental": "as §1\nFLIP protein in lung myofibroblasts Standard WB and flow cytometry were performed as described in Cohen et al., Am. J. Respir. Cell Mol. Biol. 40: 231-238, 2009.\nas §2, §3\nIPF cell line ATCC-191 (0.5×10^6), were exposed in culture (10% DMEM) to a compound of Formula 12 (1 μM), vs. 4% DMSO (vehicle) for 16 h. Immunoblots of FLIP with anti-FLIP mAb were performed (FIG. 9). […] Thus, the compound of Formula 12 attenuates FLIP stabilization in IPF-lung myofibroblast."}},
  "note": "Several values for one entry are separate records, joined by “and”; a condition that tells them apart may be missing. Equal entries are not always repeated.",
  "data": [
    {"smiles": "O=C(CCCCOc1ccc2ccccc2c1)NO", "note": "[Formula 6]", "values": [
      {"measurement": "Increase of Ku70 acetylation", "setting": "Ku70; Formula 6 1 μM, 16 h", "result": "about 80 fold"},
      {"measurement": "Ku70 levels (anti-Ku70 immunoblot)", "setting": "Ku70; Formula 6 1 μM, 16 h", "result": "without changing"},
      {"measurement": "Ku70 acetylation, optical density ratio to GAPDH (OD), pan-acetyl IB of Ku70 IP", "setting": "Ku70; Formula 6 1 μM, 16 h, ATCC-191, vehicle 0.007", "result": 0.55, "unit": "OD"},
      {"measurement": "Inhibition of Ku70-deacetylation compared with CMH", "setting": "Ku70; IPF-lung myofibroblasts", "result": "to a greater extent than CMH"},
      {"measurement": "Cleaved caspase-3", "setting": "IPF cell line ATCC-191; 0.1 μM", "result": 7.5},
      {"measurement": "Cleaved/Uncleaved caspase-3", "setting": "IPF cell line ATCC-191; 0.1 μM", "result": 0.27},
      {"measurement": "Uncleaved caspase-3", "setting": "IPF cell line ATCC-191; 0.1 μM", "result": 27.37},
      {"measurement": "Cleaved caspase-3", "setting": "IPF cell line ATCC-191; 0.3 μM", "result": 11.66},
      {"measurement": "Cleaved/Uncleaved caspase-3", "setting": "IPF cell line ATCC-191; 0.3 μM", "result": 0.18},
      {"measurement": "Uncleaved caspase-3", "setting": "IPF cell line ATCC-191; 0.3 μM", "result": 65.84},
      {"measurement": "Cleaved caspase-3", "setting": "IPF cell line ATCC-191; 1 μM", "result": 27.59},
      {"measurement": "Cleaved/Uncleaved caspase-3", "setting": "IPF cell line ATCC-191; 1 μM", "result": 0.46},
      {"measurement": "Uncleaved caspase-3", "setting": "IPF cell line ATCC-191; 1 μM", "result": 60.57},
      {"measurement": "Cleaved caspase-3", "setting": "IPF cell line ATCC-191; 3 μM", "result": 81.78},
      {"measurement": "Cleaved/Uncleaved caspase-3", "setting": "IPF cell line ATCC-191; 3 μM", "result": 1.10},
      {"measurement": "Uncleaved caspase-3", "setting": "IPF cell line ATCC-191; 3 μM", "result": 74.31},
      {"measurement": "Cleaved caspase-3", "setting": "IPF cell line ATCC-191; 10 μM", "result": 112.38},
      {"measurement": "Cleaved/Uncleaved caspase-3", "setting": "IPF cell line ATCC-191; 10 μM", "result": 1.43},
      {"measurement": "Uncleaved caspase-3", "setting": "IPF cell line ATCC-191; 10 μM", "result": 78.84},
      {"measurement": "Cleaved caspase-3", "setting": "IPF cell line ATCC-191; 30 μM", "result": 93.19},
      {"measurement": "Cleaved/Uncleaved caspase-3", "setting": "IPF cell line ATCC-191; 30 μM", "result": 2.49},
      {"measurement": "Uncleaved caspase-3", "setting": "IPF cell line ATCC-191; 30 μM", "result": 37.4},
      {"measurement": "Direct cytotoxic effects on cells", "setting": "IPF cell line ATCC-191; 0.1-30 μM, in the absence of Fas", "result": "does not exert direct cytotoxic effects"},
      {"measurement": "Decrease of FLIP expression", "setting": "FLIP; Formula 6 1 or 3 μM", "result": "about twofold"},
      {"measurement": "FLIP expression OD (anti-FLIP immunoblot)", "setting": "FLIP; Formula 6 1 or 3 μM, ATCC-191, vehicle 1.00", "result": 0.51, "unit": "OD"}
    ]},
    {"smiles": "COc1ccc(OCCCCC(=O)NO)cc1", "note": "[Formula 12]", "values": [
      {"measurement": "Decrease of FLIP levels", "setting": "FLIP; Formula 12 1 μM", "result": "about twofold"},
      {"measurement": "FLIP levels, optical density ratio to GAPDH (OD)", "setting": "FLIP; Formula 12 1 μM, ATCC-191, vehicle 9.5, 13.3 and 8.4", "result": "4.7 OD and 3.7 OD and 4.8 OD"}
    ]}
  ]
}
